Results: paper PMC9785202, “Changes in Disposition of Ezetimibe and Its Active Metabolites Induced by Impaired Hepatic Function: The Influence of Enzyme and Transporter Activities” (Pharmaceutics, 2022)
Where two headings read alike, the source gives them in different places. Marks after values point to notes of the source that are not given here. One block for each molecule: values may come before it.

Legend:
[1] = CCl4-induced hepatic failure rat model: liver index and serum ALT, AST, AKP; type: in vivo, Sprague–Dawley (SD) rats
Protocol: All animal studies were carried out according to the Guide for the Care and Use of Laboratory Animals of the Shanghai Institute of Materia Medica, Chinese Academy of Sciences. Male Sprague–Dawley (SD) rats weighing 180 to 220 g were randomized into two groups. The CCl4-induced model group was administered an intraperitoneal injection of CCl4 (20% in corn oil) at a dose of 2.5 mL/kg three times a week for 8 weeks. The control group was treated intraperitoneally with the same volume of corn oil at the same time intervals. Blood samples were collected and centrifuged at 11,600 g for 5 min to obtain serum samples for the determination of serum ALT, AST, and AKP.
Serum ALT, AST, and AKP were measured using the corresponding assay kits following the manufacturer’s instructions. Tissues fixed in 4% paraformaldehyde were embedded in paraffin, cut into slices with a 3 μm thickness, and stained with hematoxylin and eosin (H&E).

OATP1B3 = molecular target: T1, OATP1B3 (Homo sapiens, UniProt Q9NPD5); experiment: Inhibition of OATP1B3-mediated uptake in OATP1B3-transfected HEK293 cells by bile acids and rifampicin
T1 sequence (Q9NPD5 1-702): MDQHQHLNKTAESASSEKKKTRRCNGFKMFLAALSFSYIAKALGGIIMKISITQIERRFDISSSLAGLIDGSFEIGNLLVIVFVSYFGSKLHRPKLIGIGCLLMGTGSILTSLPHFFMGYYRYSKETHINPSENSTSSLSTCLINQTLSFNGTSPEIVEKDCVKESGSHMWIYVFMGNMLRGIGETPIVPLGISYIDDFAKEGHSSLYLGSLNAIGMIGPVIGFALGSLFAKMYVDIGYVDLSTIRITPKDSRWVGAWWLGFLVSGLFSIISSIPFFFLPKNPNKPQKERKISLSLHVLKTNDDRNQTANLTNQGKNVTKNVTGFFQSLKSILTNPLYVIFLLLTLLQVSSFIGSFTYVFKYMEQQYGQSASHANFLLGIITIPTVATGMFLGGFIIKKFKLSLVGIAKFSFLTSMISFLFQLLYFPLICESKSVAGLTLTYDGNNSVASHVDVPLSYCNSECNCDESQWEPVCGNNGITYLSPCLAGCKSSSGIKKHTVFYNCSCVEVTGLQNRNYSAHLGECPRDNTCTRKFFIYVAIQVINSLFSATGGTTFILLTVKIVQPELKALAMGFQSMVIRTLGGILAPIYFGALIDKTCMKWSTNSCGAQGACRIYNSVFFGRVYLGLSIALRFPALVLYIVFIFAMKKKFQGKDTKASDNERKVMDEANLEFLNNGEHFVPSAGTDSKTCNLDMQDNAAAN

[2] = Pharmacokinetics after intravenous or oral administration of 10 mg/kg EZE to control and CCl4-induced rats; type: in vivo; details: for AUC(0-t) / Cmax / Tmax / half-life: Sprague-Dawley, rat, plasma, 10 mg/kg
Protocol: Animals were fasted for 12 h with free access to water before the experiments. EZE was administered orally (prepared in 0.5% carboxymethylcellulose sodium) or intravenously (dissolved in 10% dimethyl sulfoxide, 10% tween-80, and 80% sterile H2O) to CCl4-induced rats (n = 5) and control rats (n = 5) at 10 mg/kg. Blood samples were collected from the retro-orbital venous plexus before administration (0 h), at 5, 15, and 30 min, and at 1, 2, 4, 6, 8, 12, 24, and 48 h after administration in tubes containing EDTA-2K. Plasma samples were harvested by centrifugation at 11,600 g for 5 min at 4 °C and then stored at −80 °C until further analysis.
A 25.0 μL aliquot of each sample and 25.0 μL of internal standard (50.0 ng/mL EZE-d4) were mixed with 100 μL of acetonitrile. After the samples were vortexed and centrifugated at 2250 g for 15 min, the supernatants were used to measure EZE and its metabolites by LC-MS/MS.
WinNonlin version 6.1 (Pharsight Corp., Cary, NC, USA) was used to calculate the pharmacokinetic parameters in a non-compartmental model. Statistical comparisons between the two groups were evaluated using a Student’s two-tailed unpaired t-test or the nonparametric Mann–Whitney test in GraphPad Prism (version 8.0, GraphPad Software Inc, SanDiego, CA, USA). A value of p < 0.05 was considered significant. All data were presented as the mean ± S.D. (n ≥ 3).

[3] = for Autosampler stability (4°C, 24 h), RE / Post-extraction stability (room temperature 3 h), RE / Freeze-thaw stability (−20°C, three cycles), RE / Short-term stability (room temperature 3 h), RE: n = 6; for Freeze-thaw stability (−20°C, three cycles), RE / Short-term stability (room temperature 3 h), RE: rat plasma
Protocol: The instrument parameters were as follows: ion spray voltage, −4500 V; source temperature, 550 °C; nebulizer gas, 60 psi; heater gas, 60 psi; and curtain gas, 40 psi. […] Data were acquired and processed with the Analyst 1.6.3 software (Applied Biosystems). The standard curve ranges were 1.00 to 1000 ng/mL for EZE, 3.00 to 3000 ng/mL for EZE-Ph, and 1.00 to 1000 ng/mL for EZE-Hy in plasma.
Summary of the stability of ezetimibe and its metabolites in rat plasma (n = 6).

rat primary hepatocytes = experiment: Inhibition of EZE-Ph uptake into rat primary hepatocytes by bile acids and rifampicin; details: inhibitor 200 µmol/L, 10 μM EZE-Ph, 10 min
Protocol: Rat primary hepatocytes were isolated from male SD rats as previously described [34]. Fresh rat hepatocytes (120,000 per well) were cultured in Williams’ E medium (containing 0.1 μM dexamethasone, 5% fetal bovine serum, 1% penicillin G/streptomycin, 1% GlutaMAX-I, and 1% insulin–transferrin–selenium) on collagen I-coated 48-well plates. Rat hepatocytes cultured for 4 h under a carbogen atmosphere were directly used for uptake assays.
The hepatocytes were rinsed three times with HBSS (37 °C) and equilibrated in HBSS for 10 min. […] After 10 min of incubation, cells were quickly washed three times with ice-cold HBSS and then lysed by the addition of 300 μL of purified water. The protein content was measured using the BCA protein assay kit. EZE and EZE-Ph were analyzed by LC-MS/MS.
The rates of substrate uptake were normalized using the protein contents of cell lysates.

[4] = CCl4-induced rats vs control rats
[5] = serum, CCl4-induced rats, n = 16
[6] = iv, i.v. 10 mg/kg EZE, CCl4-induced rats
[7] = iv, i.v. 10 mg/kg EZE, control rats
[8] = po, p.o. 10 mg/kg EZE, CCl4-induced rats
[9] = po, p.o. 10 mg/kg EZE, control rats
[10] = oral administration of 10 mg/kg EZE

- IC50 (OATP1B3): 8.92 µM
SMILES: C[C@H](CCC(=O)O)[C@H]1CC[C@H]2[C@@H]3[C@H](O)C[C@@H]4C[C@H](O)CC[C@]4(C)[C@H]3CC[C@]12C [CDCA, chenodeoxycholic acid]

- IC50 (OATP1B3): 25.5 µM
SMILES: C[C@H](CCC(=O)O)[C@H]1CC[C@H]2[C@@H]3[C@@H](O)C[C@@H]4C[C@H](O)CC[C@]4(C)[C@H]3CC[C@]12C [UDCA, ursodeoxycholic acid]

- IC50 (OATP1B3): 26 µM
SMILES: C[C@H](CCC(=O)NCCS(=O)(=O)O)[C@H]1CC[C@H]2[C@@H]3[C@@H](O)C[C@@H]4C[C@H](O)CC[C@]4(C)[C@H]3CC[C@]12C [TUDCA, tauroursodeoxycholic acid]

- IC50 (OATP1B3): 46.1 µM
SMILES: C[C@H](CCC(=O)NCC(=O)O)[C@H]1CC[C@H]2[C@@H]3[C@@H](O)C[C@@H]4C[C@H](O)CC[C@]4(C)[C@H]3CC[C@]12C [GUDCA, glycoursodeoxycholic acid]

- IC50 (OATP1B3): 15.1 µM
SMILES: CC(CCC(=O)NCC(=O)O)C1CCC2C3C(O)CC4CC(O)CCC4(C)C3CCC12C (stereo not drawn) [GCDCA, glycochenodeoxycholic acid]

Further lines, the molecule ahead of its results:

SMILES: ClC(Cl)(Cl)Cl [CCl4, Carbon tetrachloride]
- serum AKP, fold higher than in control rats [1, 4]: 3.86 fold
- serum ALT, fold higher than in control rats [1, 4]: 8.62 fold
- serum AST, fold higher than in control rats [1, 4]: 5.76 fold
- Liver weight/body weight ([1]; CCl4-induced rats, 8 weeks of treatment, n = 16): 37.9 ± 5.9 ^c
- AKP [1, 5]: 9887 ± 1633 ^d U/L
- ALT [1, 5]: 112 ± 33 ^d U/L
- AST [1, 5]: 125 ± 34 ^d U/L

SMILES: C[C@H](CCC(=O)O)[C@H]1CC[C@H]2[C@@H]3[C@H](O)C[C@@H]4C[C@H](O)CC[C@]4(C)[C@H]3C[C@H](O)[C@]12C [CA, cholic acid]
- IC50 (OATP1B3): 121 µM

SMILES: O=C(O)[C@H]1O[C@@H](O[C@@H](CC[C@H]2C(=O)N(c3ccc(F)cc3)[C@@H]2c2ccc(O)cc2)c2ccc(F)cc2)[C@H](O)[C@@H](O)[C@@H]1O [EZE-Hy, ezetimibe hydroxy β-D-glucuronide]
- AUC(0-t) [2, 6]: 4250 ± 2050 ng·h/mL
- Cmax [2, 6]: 146 ± 42 ng/mL
- Tmax [2, 6]: 11.2 ± 7.6 h
- half-life [2, 6]: 918 ± 144 min
- AUC(0-t) [2, 7]: 992 ± 392 ng·h/mL
- Cmax [2, 7]: 36.9 ± 9.6 ng/mL
- Tmax [2, 7]: 16.8 ± 6.6 h
- half-life [2, 7]: 966 ± 456 min
- AUC(0-t) [2, 8]: 1170 ± 418 ng·h/mL
- Cmax [2, 8]: 38.1 ± 10.1 ng/mL
- Tmax [2, 8]: 14.4 ± 5.4 h
- AUC(0-t) [2, 9]: 463 ± 160 ng·h/mL
- Cmax [2, 9]: 24.6 ± 9.9 ng/mL
- Tmax [2, 9]: 12 h
- AUC0–t, fold higher in CCl4-induced rats than in control rats ([2]; intravenous injection of 10 mg/kg EZE): 4.3 fold
- AUC0–t, fold higher in CCl4-induced rats than in control rats [2, 10]: 2.5 fold
- share in plasma relative to the main circulating component EZE-Ph [2, 10]: 11%
- Autosampler stability (4°C, 24 h), RE ([3]; HQC (800/2400/800 ng/ml)): 9.0%
- Post-extraction stability (room temperature 3 h), RE ([3]; HQC (800/2400/800 ng/ml)): 5.2%
- Autosampler stability (4°C, 24 h), RE ([3]; LQC (3.00/9.00/3.00 ng/ml)): 7.9%
- Post-extraction stability (room temperature 3 h), RE ([3]; LQC (3.00/9.00/3.00 ng/ml)): 8.9%
- stability in rat plasma under the test conditions ([3]; LQC and HQC samples, short-term, post-extraction, auto-sampler, three freeze/thaw cycles): stable
- Freeze-thaw stability (−20°C, three cycles), RE ([3]; HQC (800/2400/800 ng/ml)): 2.0%
- Short-term stability (room temperature 3 h), RE ([3]; HQC (800/2400/800 ng/ml)): -3.6%
- Freeze-thaw stability (−20°C, three cycles), RE ([3]; LQC (3.00/9.00/3.00 ng/ml)): -0.1%
- Short-term stability (room temperature 3 h), RE ([3]; LQC (EZE/EZE-Ph/EZE-Hy 3.00/9.00/3.00 ng/ml)): -6.9%
- stability in blood ([3]; room temperature for 2 h): stable

SMILES: CO[C@H]1/C=C/O[C@@]2(C)Oc3c(C)c(O)c4c(O)c(c(/C=N/N5CCN(C)CC5)c(O)c4c3C2=O)NC(=O)/C(C)=C\C=C\[C@H](C)[C@H](O)[C@@H](C)[C@@H](O)[C@@H](C)[C@H](OC(C)=O)[C@@H]1C [rifampicin, reference compound]
- EZE-Ph uptake by rat hepatocytes in the presence of inhibitor (rat primary hepatocytes): 12.0%
- uptake of estradiol-17β-glucuronide in OATP1B3-expressing HEK293 cells in the presence of inhibitor (OATP1B3; inhibitor 200 μM, substrate estradiol-17β-glucuronide): 3.89%
